Where two headings read alike, the source gives them in different places. Blank lines part the entries; values can stand above or below the molecule they belong to.
Legend:
[1] = tested on: patients with recurrent major depressive disorder; experiment: Example 3 clinical trial: MADRS and CGI-I efficacy; assay type: in vivo, human; settings: for Change in 5-item MADRS score, Difference / Change in MADRS total score, Difference: VOR IV + VOR oral versus PBO IV + VOR oral;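 for Change in 5-item MADRS score, Difference: apparent sadness Reported sadness Inner tension Pessimistic thoughts Suicidal thoughts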;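 for Change in 5-item MADRS score, Mean: apparent sadness Reported sadness Inner tension Pessimistic thoughts Suicidal thoughts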
Description: In particular, a total of 55 patients (27 and 28 in each treatment group) were recruited to an interventional, prospective, multi-national, multi-site, randomised, double-blind, parallel-group, fixed-dose study.
The study consisted of a Screening Period—2 to 14-day period from screening to randomisation, a Treatment Period—15-day double-blind treatment period with one initial IV administration of 17 mg vortioxetine or saline and daily oral treatment with vortioxetine 10 mg and a Safety Follow-up Period—4-week period after end of treatment or after withdrawal from the study.
At the Baseline Visit, patients were equally randomised (1:1) to either of the following two dose regimens: vortioxetine 17 mg single dose (IV) and vortioxetine 10 mg/day (tablet) or placebo single dose (IV) and vortioxetine 10 mg/day (tablet).
(§1) Patients randomised to the vortioxetine IV dose regimen, received a single double-blind IV dose of 17 mg vortioxetine, infused over 2 hours, on Day 0 (baseline). Patients randomised to the vortioxetine oral dose regimen received a single double-blind IV dose of placebo (saline), infused over 2 hours, on Day 0. From Day 0 to Day 14, all patients in both treatment groups also received open labelled 10 mg/day vortioxetine by oral administration (tablets).
Following the IV infusion, patients stayed hospitalised for approximately 24 hours for close observation. After the hospitalisation period, patients continued the study on an outpatient basis.
Efficacy and safety data were collected at Days 0, 1, 3, 7, and 14, including MADRS and clinical global impression […].
The full MADRS scale may not be a suitable tool for gauging the early onset of anti-depressant effect of a drug because some of the ten items addressed in the MADRS test may require longer assessment time to validly assess a given symptom. For example, the MADRS item “Concentration Difficulties” requires that the patient has been exposed to a situation during the treatment where a change in the ability to concentrate could be identified in order for that item to truly reflect a treatment effect.

[2] = Example 3 clinical trial: vortioxetine plasma levels and simulated AUC0-24; assay type: in vivo; settings: human; for concentration at 2 h: Day 0, 2 hours; for concentration at 8 h: Day 0, 8 hours; for concentration at 24 h: Day 0, 24 hours; for concentration at 14 day: Day 14; for AUC(0-t): popPK simulation based on observed data
Description: as §1
The popPK model from example 2 was used to simulate vortioxetine plasma levels based on the observed data from Table 5. […] That is, the steady-state plasma level of vortioxetine achieved from the combined IV and oral vortioxetine administration the within 24 hours from the first dosing is essentially the same as the steady-state vortioxetine plasma level achieved at day 14 following the administration of once-daily oral vortioxetine alone in that period.

5-HT1B receptor = biological target: T1, 5-HT1B receptor (Macaca mulatta, UniProt F6SFA9); experiment: Example 1 PET monkey study: change in [11C]AZ10419369-5-HT1B receptor binding potential (BPND); assay type: in vivo, rhesus monkeys; settings: rhesus monkey, iv, Citalopram 0.3 mg/kg IV, mean±standard error, n=3, read-out: ΔBPND (% of baseline)
T1 construct: assess changes in the endogenous serotonin concentration in living rhesus monkeys; from tissue; host or cells: brain of living rhesus monkeys (PET)
Text: Positron Emission Tomography (PET) was used to assess changes in the endogenous serotonin concentration in living rhesus monkeys. The objective of the present study was two-fold. […] The chemical name for [^11C]MADAM is [^11C] N,N-dimethyl-2-(2-amino-4-methylphenylthio)benzylamine.
FIG. 1 illustrates the study design used for assessment of serotonin releasing capacities. A similar study design was applied for assessment of SERT occupancy.

[3] = PBO IV + VOR oral (10 mg/day), Day 1, N 28
[4] = PBO IV + VOR oral (10 mg/day), Day 3, N 28
[5] = PBO IV + VOR oral (10 mg/day), Day 7, N 28
[6] = VOR IV (17 mg day 0) + VOR oral (10 mg/day), Day 1, N 27
[7] = VOR IV (17 mg day 0) + VOR oral (10 mg/day), Day 3, N 27
[8] = VOR IV (17 mg day 0) + VOR oral (10 mg/day), Day 7, N 27
[9] = other: intravenous infusion plus oral tablets, VOR IV + VOR oral

T1 sequence (F6SFA9 1-390): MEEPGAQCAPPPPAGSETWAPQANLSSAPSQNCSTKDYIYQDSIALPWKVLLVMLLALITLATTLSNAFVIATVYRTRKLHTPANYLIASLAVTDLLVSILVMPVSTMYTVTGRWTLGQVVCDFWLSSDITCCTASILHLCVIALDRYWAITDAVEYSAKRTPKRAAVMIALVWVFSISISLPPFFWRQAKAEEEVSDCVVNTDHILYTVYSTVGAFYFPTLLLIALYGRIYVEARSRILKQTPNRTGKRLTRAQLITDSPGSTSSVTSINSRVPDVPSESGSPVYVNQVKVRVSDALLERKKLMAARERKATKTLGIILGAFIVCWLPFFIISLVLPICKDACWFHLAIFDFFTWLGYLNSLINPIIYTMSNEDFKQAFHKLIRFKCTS

- concentration at 2 h ([2]; 10 mg/day, PBO IV + VOR oral): 0.56 ± 1.18 ng/mL
- concentration at 8 h ([2]; 10 mg/day, PBO IV + VOR oral): 2.8 ± 1.8 ng/mL
- concentration at 24 h ([2]; 10 mg/day, PBO IV + VOR oral): 2.6 ± 1.3 ng/mL
- concentration at 14 day ([2]; 10 mg/day, PBO IV + VOR oral): 9.9 ± 5.3 ng/mL
- AUC(0-t) ([2]; oral, 10 mg/day, day 0, PBO IV+VOR oral treated patients): 47 ± 20 ng·h/mL
- AUC(0-t) ([2]; oral, 10 mg/day, day 14, PBO IV+VOR oral treated patients): 230 ± 85 ng·h/mL
SMILES: Cc1ccc(Sc2ccccc2N2CCNCC2)c(C)c1 [PBO IV + VOR oral]
- Change in 5-item MADRS score, Mean [1, 3]: −3.92
- Change in MADRS total score, Mean [1, 3]: −5.5
- Change in 5-item MADRS score, Mean [1, 4]: −6.00
- Change in MADRS total score, Mean [1, 4]: −10.3
- Change in 5-item MADRS score, Mean [1, 5]: −7.03
- Change in MADRS total score, Mean [1, 5]: −13.4
- Change in 5-item MADRS score, Mean ([1]; PBO IV + VOR oral (10 mg/day), Day 14, N 28): -9.21
- % responders (CGI-I ≤ 2) ([1]; PBO IV + VOR oral, Day 1): 7.1%
- % responders (≥50% reduction on MADRS Scale) ([1]; PBO IV + VOR oral, Day 1): 0%
- % responders (CGI-I ≤ 2) ([1]; PBO IV + VOR oral, Day 3): 39.3%
- % responders (≥50% reduction on MADRS Scale) ([1]; PBO IV + VOR oral, Day 3): 14.3%
- % responders (CGI-I ≤ 2) ([1]; PBO IV + VOR oral, Day 7): 42.9%
- % responders (≥50% reduction on MADRS Scale) ([1]; PBO IV + VOR oral, Day 7): 28.6%
- % responders (CGI-I ≤ 2) ([1]; PBO IV + VOR oral, Day 14): 67.9%
- % responders (≥50% reduction on MADRS Scale) ([1]; PBO IV + VOR oral, Day 14): 50.0%

- change in vivo at 0.3 mg/kg (5-HT1B receptor; Amygdala): 4.6 ± 11.6%
- change in vivo at 0.3 mg/kg (5-HT1B receptor; Caudate nucleus): 7.1 ± 7.5%
- change in vivo at 0.3 mg/kg (5-HT1B receptor; Dorsal raphe nucleus): -21.2 ± 5.7%
- change in vivo at 0.3 mg/kg (5-HT1B receptor; Frontal gyrus): 12.4 ± 9.3%
- change in vivo at 0.3 mg/kg (5-HT1B receptor; Globus pallidus): -1.6 ± 9.6%
- change in vivo at 0.3 mg/kg (5-HT1B receptor; Hippocampus): 5.4 ± 12.5%
- change in vivo at 0.3 mg/kg (5-HT1B receptor; Midbrain): 2.7 ± 5.3%
- change in vivo at 0.3 mg/kg (5-HT1B receptor; Occipital gyrup): 15.7 ± 11.1%
- change in vivo at 0.3 mg/kg (5-HT1B receptor; Putamen): 7.3 ± 12%
- change in vivo at 0.3 mg/kg (5-HT1B receptor; Thalamus): 0.3 ± 5.6%
- change in vivo at 0.3 mg/kg (5-HT1B receptor; Ventral striatum): 3.1 ± 10.8%
SMILES: CN(C)CCCC1(c2ccc(F)cc2)OCc2cc(C#N)ccc21 (centres unmarked) [Citalopram]

- concentration at 2 h [2, 9]: 11.1 ± 9.3 ng/mL
- concentration at 8 h [2, 9]: 11 ± 2.9 ng/mL
- concentration at 24 h [2, 9]: 8.6 ± 2.6 ng/mL
- concentration at 14 day [2, 9]: 10.8 ± 7 ng/mL
- AUC(0-t) ([2]; other: intravenous infusion plus oral tablets, day 0, VOR IV+VOR oral treated patients): 251 ± 46 ng·h/mL
SMILES: Cc1ccc(Sc2ccccc2N2CCNCC2)c(C)c1 [VOR IV + VOR oral]
- Change in 5-item MADRS score, Mean [1, 6]: −5.05
- Change in MADRS total score, Mean [1, 6]: −6.9
- Change in 5-item MADRS score, Mean [1, 7]: −6.96
- Change in MADRS total score, Mean [1, 7]: −12.1
- Change in 5-item MADRS score, Mean [1, 8]: −8.30
- Change in MADRS total score, Mean [1, 8]: −13.7
- Change in 5-item MADRS score, Mean ([1]; VOR IV (17 mg day 0) + VOR oral (10 mg/day), Day 14, N 27): -9.37
- Change in 5-item MADRS score, Difference ([1]; Day 1): −1.13
- Change in MADRS total score, Difference ([1]; Day 1): −1.4
- Change in 5-item MADRS score, Difference ([1]; Day 3): −0.96
- Change in MADRS total score, Difference ([1]; Day 3): −1.7
- Change in 5-item MADRS score, Difference ([1]; Day 7): −1.27
- Change in MADRS total score, Difference ([1]; Day 7): −0.3
- Change in 5-item MADRS score, Difference ([1]; Day 14): −0.16
- % responders (CGI-I ≤ 2) ([1]; VOR IV + VOR oral, Day 1): 18.5%
- % responders (≥50% reduction on MADRS Scale) ([1]; VOR IV + VOR oral, Day 1): 3.7%
- % responders (CGI-I ≤ 2) ([1]; VOR IV + VOR oral, Day 3): 50.0%
- % responders (≥50% reduction on MADRS Scale) ([1]; VOR IV + VOR oral, Day 3): 29.6%
- % responders (CGI-I ≤ 2) ([1]; VOR IV + VOR oral, Day 7): 53.8%
- % responders (≥50% reduction on MADRS Scale) ([1]; VOR IV + VOR oral, Day 7): 40.7%
- % responders (CGI-I ≤ 2) ([1]; VOR IV + VOR oral, Day 14): 73.1%
- % responders (≥50% reduction on MADRS Scale) ([1]; VOR IV + VOR oral, Day 14): 48.1%

From patent publication US10258617B2, “Dosing regimens for fast onset of antidepressant effect” (H. Lundbeck A/S, priority 2016, dated 2019)
